{
  "source": "patent US20230382949A1",
  "about": "(HEPTARES THERAPEUTICS LIMITED, priority 2020, published 2023)",
  "key": {"[1]": {"biological_target": "T1, human Apelin receptor (Homo sapiens, UniProt P35414)", "T1 sequence (P35414 1-380)": "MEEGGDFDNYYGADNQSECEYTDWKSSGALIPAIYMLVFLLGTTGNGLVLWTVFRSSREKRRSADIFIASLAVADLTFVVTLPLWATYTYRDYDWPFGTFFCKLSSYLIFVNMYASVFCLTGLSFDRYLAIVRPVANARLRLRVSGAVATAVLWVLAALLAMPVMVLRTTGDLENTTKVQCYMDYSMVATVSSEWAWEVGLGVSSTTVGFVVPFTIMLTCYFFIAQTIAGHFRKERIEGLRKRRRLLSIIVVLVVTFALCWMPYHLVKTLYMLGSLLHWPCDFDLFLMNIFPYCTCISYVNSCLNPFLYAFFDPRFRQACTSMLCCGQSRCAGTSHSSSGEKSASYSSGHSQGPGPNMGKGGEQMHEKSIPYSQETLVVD", "assay": "cAMP accumulation assay (HTRF), functional agonism of human Apelin receptors", "type": "cell-based", "conditions": "CHO cells stably expressing the human Apelin receptor, 3 uM forskolin; for Emax: CHO, Human Apelin agonist cAMP assay; for EC50: pEC50, Human Apelin agonist cAMP assay", "description": "cAMP functional assay. cAMP production was quantified using the Homogeneous Time-Resolved Fluorescence (HTRF) cAMP dynamic-2 assay (Cisbio, France)."}, "[2]": {"biological_target": "T2, human Apelin receptor (Homo sapiens, UniProt P35414)", "T2 construct": "host or cells: CHO-K1 cells", "assay": "β-arrestin accumulation assay, functional agonism of human Apelin receptors", "type": "cell-based", "protocol": "β-arrestin assay. […] After 16 h incubation at 37° C. media was removed and cells were incubated at 37° C. for 90 min in serum free media containing increasing concentrations of test agonist. The assay reaction was stopped by adding detection reagent (DiscoveRx) and incubation for 60 min in the dark. Levels of receptor activation were then measured on a PheraStar fluorescence plate reader (BMG LabTech) and EC50 values were determined using Graphpad Prism.", "T2 sequence (P32121 whole entry partner, one chain of several)": "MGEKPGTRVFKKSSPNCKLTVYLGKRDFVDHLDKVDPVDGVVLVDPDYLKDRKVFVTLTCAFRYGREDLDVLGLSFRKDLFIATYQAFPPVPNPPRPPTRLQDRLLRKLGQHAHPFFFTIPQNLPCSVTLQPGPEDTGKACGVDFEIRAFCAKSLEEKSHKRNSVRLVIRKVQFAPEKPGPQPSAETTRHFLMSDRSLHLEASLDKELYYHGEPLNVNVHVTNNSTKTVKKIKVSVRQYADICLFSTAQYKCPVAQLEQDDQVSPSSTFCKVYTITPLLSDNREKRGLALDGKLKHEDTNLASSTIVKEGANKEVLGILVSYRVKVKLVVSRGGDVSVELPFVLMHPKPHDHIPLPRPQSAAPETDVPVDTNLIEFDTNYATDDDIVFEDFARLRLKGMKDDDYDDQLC"}},
  "note": "Starred links: 1 amine or outer side, 2 acyl side, 3 side chain; linkers in the order of their positions; H or OH if unused. Non-standard residues stand in square brackets, D forms with d. Residues, ends and D or L forms follow the SMILES beside them. *: point of attachment. Ala(piperidin-4-yl) = O=C([C@H](CC1CCN([*:3])CC1)N[*:1])[*:2]; Malonyl(2,2-Me2,histaminyl) = CC(C)(C(=O)NCCc1cnc[nH]1)C(=O)*; Bip = N[C@@H](Cc1ccc(-c2ccccc2)cc1)C(=O)O; dBip = N[C@H](Cc1ccc(-c2ccccc2)cc1)C(=O)O; Oic = O=C(O)[C@@H]1C[C@@H]2CCCC[C@@H]2N1; Phe(3-Cl) = N[C@@H](Cc1cccc(Cl)c1)C(=O)O; Phe(4-Br) = N[C@@H](Cc1ccc(Br)cc1)C(=O)O; Phe(4-Cl) = N[C@@H](Cc1ccc(Cl)cc1)C(=O)O; 2Nal = N[C@@H](Cc1ccc2ccccc2c1)C(=O)O; hArg = N=C(N)NCCCC[C@H](N)C(=O)O; tBuAla = CC(C)(C)C[C@H](N)C(=O)O; 3Pal = N[C@@H](Cc1cccnc1)C(=O)O; Cba = N[C@@H](CC1CCC1)C(=O)O; Pip = O=C(O)[C@@H]1CCCCN1; Aib = CC(C)(N)C(=O)O",
  "data": [
    {"smiles": "CC(C)(C)C[C@H](NC(=O)[C@@H](CCCNC(=N)N)NC(=O)[C@@H]1CCCN1C(=O)[C@H](CCCCNC(=N)N)NC(=O)[C@H](CCC(N)=O)NC(=O)[C@@H](CCCNC(=N)N)NC(=O)C(C)(C)C(=O)NCCc1c[nH]cn1)C(=O)NC(C)(C)C(=O)N[C@@H](Cc1c[nH]cn1)C(=O)N[C@@H](CC1CCNCC1)C(=O)NCC(=O)N1[C@H](C(=O)N[C@@H](Cc2ccc(Br)cc2)C(=O)N2CCC[C@H]2C(=O)N[C@H](Cc2ccc(-c3ccccc3)cc2)C(=O)O)C[C@@H]2CCCC[C@@H]21", "note": "[Example 13] ({Malonyl(2,2-Me2,histaminyl)}-[dR]Q[hArg]P[dR][tBuAla][Aib]H[Ala(piperidin-4-yl)]G[Oic][Phe(4-Br)]P[dBip]-OH)", "values": [
      {"measurement": "Emax", "setting": "[1]", "result": 72.9, "unit": "%"},
      {"measurement": "EC50", "setting": "[1]", "result": 25.1, "unit": "nM"},
      {"measurement": "EC50", "setting": "[2]", "result": "> 10000", "unit": "nM"}
    ]},
    {"smiles": "CC(C)(NC(=O)[C@H](CC1CCC1)NC(=O)[C@@H](CCCNC(=N)N)NC(=O)[C@@H]1CCCN1C(=O)[C@H](CCCCNC(=N)N)NC(=O)[C@H](CCC(N)=O)NC(=O)[C@@H](CCCNC(=N)N)NC(=O)C(C)(C)C(=O)NCCc1c[nH]cn1)C(=O)N[C@@H](Cc1c[nH]cn1)C(=O)N[C@@H](CC1CCNCC1)C(=O)NCC(=O)N1[C@H](C(=O)N[C@@H](Cc2ccc(Br)cc2)C(=O)N2CCC[C@H]2C(=O)N[C@H](Cc2ccc(-c3ccccc3)cc2)C(=O)O)C[C@@H]2CCCC[C@@H]21", "note": "[Example 14] ({Malonyl(2,2-Me2,histaminyl)}-[dR]Q[hArg]P[dR][Cba][Aib]H[Ala(piperidin-4-yl)]G[Oic][Phe(4-Br)]P[dBip]-OH)", "values": [
      {"measurement": "Emax", "setting": "[1]", "result": 77, "unit": "%"},
      {"measurement": "EC50", "setting": "[1]", "result": 7.94, "unit": "nM"},
      {"measurement": "EC50", "setting": "[2]", "result": "> 10000", "unit": "nM"}
    ]},
    {"smiles": "CC(C)C[C@H](NC(=O)[C@@H](CCCNC(=N)N)NC(=O)[C@@H]1CCCN1C(=O)[C@H](CCCCNC(=N)N)NC(=O)[C@H](CCC(N)=O)NC(=O)[C@@H](CCCNC(=N)N)NC(=O)C(C)(C)C(=O)NCCc1c[nH]cn1)C(=O)NC(C)(C)C(=O)N[C@@H](Cc1cccnc1)C(=O)N[C@@H](CC1CCNCC1)C(=O)NCC(=O)N1[C@H](C(=O)N[C@@H](Cc2ccc(Br)cc2)C(=O)N2CCC[C@H]2C(=O)N[C@H](Cc2ccc(-c3ccccc3)cc2)C(=O)O)C[C@@H]2CCCC[C@@H]21", "note": "[Example 15] ({Malonyl(2,2-Me2,histaminyl)}-[dR]Q[hArg]P[dR]L[Aib][3Pal][Ala(piperidin-4-yl)]G[Oic][Phe(4-Br)]P[dBip]-OH)", "values": [
      {"measurement": "Emax", "setting": "[1]", "result": 86.4, "unit": "%"},
      {"measurement": "EC50", "setting": "[1]", "result": 7.94, "unit": "nM"},
      {"measurement": "EC50", "setting": "[2]", "result": "> 10000", "unit": "nM"}
    ]},
    {"smiles": "CC(C)C[C@H](NC(=O)[C@@H](CCCNC(=N)N)NC(=O)[C@@H]1CCCN1C(=O)[C@H](CCCCNC(=N)N)NC(=O)[C@H](CCC(N)=O)NC(=O)[C@@H](CCCNC(=N)N)NC(=O)C(C)(C)C(=O)NCCc1c[nH]cn1)C(=O)NC(C)(C)C(=O)N[C@@H](Cc1c[nH]cn1)C(=O)N[C@@H](CC1CCNCC1)C(=O)N[C@@H](C)C(=O)N1[C@H](C(=O)N[C@@H](Cc2ccc(Br)cc2)C(=O)N2CCC[C@H]2C(=O)N[C@H](Cc2ccc(-c3ccccc3)cc2)C(=O)O)C[C@@H]2CCCC[C@@H]21", "note": "[Example 16] ({Malonyl(2,2-Me2,histaminyl)}-[dR]Q[hArg]P[dR]L[Aib]H[Ala(piperidin-4-yl)]A[Oic][Phe(4-Br)]P[dBip]-OH)", "values": [
      {"measurement": "Emax", "setting": "[1]", "result": 64.8, "unit": "%"},
      {"measurement": "EC50", "setting": "[1]", "result": 5.01, "unit": "nM"},
      {"measurement": "EC50", "setting": "[2]", "result": "> 1000", "unit": "nM"}
    ]},
    {"smiles": "CC(C)C[C@H](NC(=O)[C@@H](CCCNC(=N)N)NC(=O)[C@@H]1CCCN1C(=O)[C@H](CCCCNC(=N)N)NC(=O)[C@H](CCC(N)=O)NC(=O)[C@@H](CCCNC(=N)N)NC(=O)C(C)(C)C(=O)NCCc1c[nH]cn1)C(=O)NC(C)(C)C(=O)N[C@@H](Cc1c[nH]cn1)C(=O)N[C@@H](CC1CCNCC1)C(=O)NCC(=O)N1[C@H](C(=O)N[C@@H](Cc2ccc(Cl)cc2)C(=O)N2CCC[C@H]2C(=O)N[C@H](Cc2ccc(-c3ccccc3)cc2)C(=O)O)C[C@@H]2CCCC[C@@H]21", "note": "[Example 17] ({Malonyl(2,2-Me2,histaminyl)}-[dR]Q[hArg]P[dR]L[Aib]H[Ala(piperidin-4-yl)]G[Oic][Phe(4-Cl)]P[dBip]-OH)", "values": [
      {"measurement": "Emax", "setting": "[1]", "result": 78.8, "unit": "%"},
      {"measurement": "EC50", "setting": "[1]", "result": 25.1, "unit": "nM"},
      {"measurement": "EC50", "setting": "[2]", "result": "> 10000", "unit": "nM"}
    ]},
    {"smiles": "CC(C)C[C@H](NC(=O)[C@@H](CCCNC(=N)N)NC(=O)[C@@H]1CCCN1C(=O)[C@H](CCCCNC(=N)N)NC(=O)[C@H](CCC(N)=O)NC(=O)[C@@H](CCCNC(=N)N)NC(=O)C(C)(C)C(=O)NCCc1c[nH]cn1)C(=O)NC(C)(C)C(=O)N[C@@H](Cc1c[nH]cn1)C(=O)N[C@@H](CC1CCNCC1)C(=O)NCC(=O)N1[C@H](C(=O)N[C@@H](Cc2cccc(Cl)c2)C(=O)N2CCC[C@H]2C(=O)N[C@H](Cc2ccc(-c3ccccc3)cc2)C(=O)O)C[C@@H]2CCCC[C@@H]21", "note": "[Example 18] ({Malonyl(2,2-Me2,histaminyl)}-[dR]Q[hArg]P[dR]L[Aib]H[Ala(piperidin-4-yl)]G[Oic][Phe(3-Cl)]P[dBip]-OH)", "values": [
      {"measurement": "Emax", "setting": "[1]", "result": 47.5, "unit": "%"},
      {"measurement": "EC50", "setting": "[1]", "result": 79.4, "unit": "nM"},
      {"measurement": "EC50", "setting": "[2]", "result": "> 10000", "unit": "nM"}
    ]},
    {"smiles": "CC(C)C[C@H](NC(=O)[C@@H](CCCNC(=N)N)NC(=O)[C@@H]1CCCN1C(=O)[C@H](CCCCNC(=N)N)NC(=O)[C@H](CCC(N)=O)NC(=O)[C@@H](CCCNC(=N)N)NC(=O)C(C)(C)C(=O)NCCc1c[nH]cn1)C(=O)NC(C)(C)C(=O)N[C@@H](Cc1c[nH]cn1)C(=O)N[C@@H](CC1CCNCC1)C(=O)NCC(=O)N1[C@H](C(=O)N[C@@H](Cc2ccc(-c3ccccc3)cc2)C(=O)N2CCC[C@H]2C(=O)N[C@H](Cc2ccc(-c3ccccc3)cc2)C(=O)O)C[C@@H]2CCCC[C@@H]21", "note": "[Example 19] ({Malonyl(2,2-Me2,histaminyl)}-[dR]Q[hArg]P[dR]L[Aib]H[Ala(piperidin-4-yl)]G[Oic][Bip]P[dBip]-OH)", "values": [
      {"measurement": "Emax", "setting": "[1]", "result": 97, "unit": "%"},
      {"measurement": "EC50", "setting": "[1]", "result": 20, "unit": "nM"},
      {"measurement": "EC50", "setting": "[2]", "result": "> 10000", "unit": "nM"}
    ]},
    {"smiles": "CC(C)C[C@H](NC(=O)[C@@H](CCCNC(=N)N)NC(=O)[C@@H]1CCCN1C(=O)[C@H](CCCCNC(=N)N)NC(=O)[C@H](CCC(N)=O)NC(=O)[C@@H](CCCNC(=N)N)NC(=O)C(C)(C)C(=O)NCCc1c[nH]cn1)C(=O)NC(C)(C)C(=O)N[C@@H](Cc1c[nH]cn1)C(=O)N[C@@H](CC1CCNCC1)C(=O)NCC(=O)N1[C@H](C(=O)N[C@@H](Cc2ccc3ccccc3c2)C(=O)N2CCC[C@H]2C(=O)N[C@H](Cc2ccc(-c3ccccc3)cc2)C(=O)O)C[C@@H]2CCCC[C@@H]21", "note": "[Example 20] ({Malonyl(2,2-Me2,histaminyl)}-[dR]Q[hArg]P[dR]L[Aib]H[Ala(piperidin-4-yl)]G[Oic][2Nal]P[dBip]-OH)", "values": [
      {"measurement": "Emax", "setting": "[1]", "result": 84.1, "unit": "%"},
      {"measurement": "EC50", "setting": "[1]", "result": 12.6, "unit": "nM"},
      {"measurement": "EC50", "setting": "[2]", "result": "> 10000", "unit": "nM"}
    ]},
    {"smiles": "CC(C)C[C@H](NC(=O)[C@@H](CCCNC(=N)N)NC(=O)[C@@H]1CCCN1C(=O)[C@H](CCCCNC(=N)N)NC(=O)[C@H](CCC(N)=O)NC(=O)[C@@H](CCCNC(=N)N)NC(=O)C(C)(C)C(=O)NCCc1c[nH]cn1)C(=O)NC(C)(C)C(=O)N[C@@H](Cc1c[nH]cn1)C(=O)N[C@@H](CC1CCNCC1)C(=O)NCC(=O)N1[C@H](C(=O)N[C@@H](Cc2ccc(Br)cc2)C(=O)N2CCCC[C@H]2C(=O)N[C@H](Cc2ccc(-c3ccccc3)cc2)C(=O)O)C[C@@H]2CCCC[C@@H]21", "note": "[Example 21] ({Malonyl(2,2-Me2,histaminyl)}-[dR]Q[hArg]P[dR]L[Aib]H[Ala(piperidin-4-yl)]G[Oic][Phe(4-Br)][Pip][dBip]-OH)", "values": [
      {"measurement": "Emax", "setting": "[1]", "result": 54.5, "unit": "%"},
      {"measurement": "EC50", "setting": "[1]", "result": 10, "unit": "nM"},
      {"measurement": "EC50", "setting": "[2]", "result": "> 1000", "unit": "nM"}
    ]}
  ]
}
